Experimental findings from EP0106793A1, “7-Alpha-alkyl-17-alpha-pregn-4-ene-21,17-carbolactones and -21-carboxylic acid salts and procedures for manufacturing them and pharmaceutical preparations containing them” (SCHERING AKTIENGESELLSCHAFT, priority 1982, dated 1984) are described below.

This assay has as its system aldosterone. Nature of the assay: antialdosterone effect, experimental model by Hollmann. It counts as in vivo. The note with it: relative to spironolactone = 1. The method, then: The antialdosterone effect was determined and measured in an experimental model by Hallmann (G. Hollmann et al, Tubular Effects and Renal Elimination of Spirono- lactones, Naunyn-Schmiedebergs Arch. Exp. Path. Pharmak. 247 (1964), p 419; P. Marx, Renal Effects of d-aldosterone and Its Antagonist Spironolactone, Diss. Med. Fak. FU Berlin, 1966 whose disclosure is incorporated by references herein).

As to `CC(=O)S[C@@H]1CC2=CC(=O)CC[C@]2(C)[C@H]2CC[C@@]3(C)[C@@H](CC[C@@]34CCC(=O)O4)[C@H]12` [spironolactone], the “relative values of the degree of antialdosterone effect” value is 1.
